{"source": "patent EP4696306A1", "about": "“ADENOSINE TRIPHOSPHATE SECRETION INHIBITOR, HEPATIC STELLATE CELL ACTIVATION INHIBITOR, HEPATIC STELLATE CELL DEACTIVATOR, HEPATIC FIBROSIS THERAPEUTIC AGENT, NON-ALCOHOLIC STEATOHEPATITIS THERAPEUTIC AGENT, PSORIASIS THERAPEUTIC AGENT, AND USE OF COMPOUND FOR PRODUCING ADENOSINE TRIPHOSPHATE …” (KURUME UNIVERSITY, priority 2023, dated 2024)", "target": "T1, human VNUT (Homo sapiens, UniProt Q9BYT1)", "T1 construct": "made in house; host or cells: HIGH FIVE insect cells (baculovirus)", "T1 sequence (Q9BYT1 1-430 isoform Q9BYT1-2)": "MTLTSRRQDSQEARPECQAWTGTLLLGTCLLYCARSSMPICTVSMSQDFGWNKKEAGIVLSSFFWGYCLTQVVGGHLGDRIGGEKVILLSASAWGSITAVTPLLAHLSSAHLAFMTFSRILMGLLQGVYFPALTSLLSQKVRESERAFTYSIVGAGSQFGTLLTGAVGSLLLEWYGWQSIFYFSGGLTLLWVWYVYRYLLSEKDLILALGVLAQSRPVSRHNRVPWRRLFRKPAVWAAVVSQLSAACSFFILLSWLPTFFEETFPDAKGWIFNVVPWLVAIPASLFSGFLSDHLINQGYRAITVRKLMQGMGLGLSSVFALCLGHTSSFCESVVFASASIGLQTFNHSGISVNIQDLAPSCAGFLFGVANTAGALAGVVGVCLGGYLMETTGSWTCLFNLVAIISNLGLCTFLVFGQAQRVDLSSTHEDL", "test": "ATP loading into reconstituted liposomes containing human VNUT", "type": "biochemical", "conditions": "0.1 mM PEP; 30°C, 2 minutes; N = 3", "procedure": "Human VNUT was prepared according to Reference C (Keisuke Sawada et al., 2008, Identification of a vesicular nucleotide transporter, Proc Natl Acad Sci USA, vol. 105, no. 15, 5683-5686). Insect cells (HIGH FIVE cells) were infected at MOI = 1 with a baculovirus in which a human VNUT expression system was incorporated. HIGH FIVE cells expressing VNUT (1 × 10^8 cells) were collected with a cell scraper, and suspended at about 8 mg/ml in 20 mM Tris-HCl (pH 8.0), 0.1 M potassium acetate, 10% glycerol, 10 µg/ml pepstatin A, and 10 µg/ml leupeptin, followed by homogenization of the cells using an ultrasonic generator (manufactured by Sonics Materials). […]\nVNUT (protein, 20 µg) prepared by the above method was mixed with liposomes (lipid weight, 200 µg), and left to stand at -80°C for 30 minutes. […] A major band was detected at a position of about 68 kDa. The proteins after the electrophoresis with the ePAGEL E-T520 2-10% gradient gel (manufactured by Atto) were electrotransferred to a nitrocellulose sheet, and analyzed by Western blotting using an anti-human SLC17A9 (VNUT) rabbit polyclonal antibody (manufactured by Proteintech).\nThe ATP transport activity of the VNUT-containing reconstituted liposomes prepared by the above method was measured. […]"}
{"smiles": "C=C(OP(=O)(O)O)C(=O)O", "note": "[PEP, phosphoenolpyruvic acid]", "values": [{"measurement": "ATP loading into liposomes", "result": "strongly inhibited"}]}
